Test results: ChEMBL document CHEMBL1201862, “PubChem BioAssay data set” (2004)
Calls of active or inactive are those of the source.

Tests used:
[1] = A cytotoxicity screen of small molecule inhibitors of the PhoP region in Salmonella typhi identified in the primary screen. [Related pubchem assays: 1850, 1864, 1985 ]; type: functional
[2] = molecular target: Genome polyprotein (dengue virus type 2, UniProt P29990); assay: Dengue-2 NS5 methyltransferase inhibitors, primary screen, biochemical, confirmation dose response (AID 588689); type: functional
Chain of Genome polyprotein (P29990 2492-3391 limits assumed): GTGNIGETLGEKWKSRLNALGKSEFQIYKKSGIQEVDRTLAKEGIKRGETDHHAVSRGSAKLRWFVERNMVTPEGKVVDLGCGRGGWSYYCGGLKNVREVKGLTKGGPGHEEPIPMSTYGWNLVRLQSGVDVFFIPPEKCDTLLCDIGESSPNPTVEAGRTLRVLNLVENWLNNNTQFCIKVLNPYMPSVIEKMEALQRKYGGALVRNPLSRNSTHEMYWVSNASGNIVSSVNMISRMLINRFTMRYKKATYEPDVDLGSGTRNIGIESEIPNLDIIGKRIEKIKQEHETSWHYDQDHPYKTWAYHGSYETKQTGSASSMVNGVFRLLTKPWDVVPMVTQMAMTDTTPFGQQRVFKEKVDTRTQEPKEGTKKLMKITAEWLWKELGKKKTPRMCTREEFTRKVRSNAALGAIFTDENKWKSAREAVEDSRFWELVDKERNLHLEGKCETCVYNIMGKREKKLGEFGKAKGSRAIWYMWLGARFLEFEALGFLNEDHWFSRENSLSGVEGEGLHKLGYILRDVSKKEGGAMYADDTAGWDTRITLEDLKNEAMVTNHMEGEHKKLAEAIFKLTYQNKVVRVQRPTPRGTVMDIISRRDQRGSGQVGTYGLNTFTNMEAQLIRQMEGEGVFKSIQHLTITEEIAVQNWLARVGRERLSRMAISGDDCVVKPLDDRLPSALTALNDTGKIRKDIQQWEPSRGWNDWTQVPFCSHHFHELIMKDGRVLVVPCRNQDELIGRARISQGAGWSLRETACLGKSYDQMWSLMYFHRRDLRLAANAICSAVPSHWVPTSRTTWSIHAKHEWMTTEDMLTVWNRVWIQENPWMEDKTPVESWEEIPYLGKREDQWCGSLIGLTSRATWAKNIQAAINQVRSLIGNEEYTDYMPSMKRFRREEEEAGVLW

[3] = molecular target: Induced myeloid leukemia cell differentiation protein Mcl-1 (Homo sapiens, UniProt Q07820); assay: MCL1-BIM BH3 interaction inhibitors, dose response, biochemical, fluorescence polarization, BIM-BH3 peptide, 1536-well (AID 2217)
Chain of Induced myeloid leukemia cell differentiation protein Mcl-1 (Q07820 whole entry): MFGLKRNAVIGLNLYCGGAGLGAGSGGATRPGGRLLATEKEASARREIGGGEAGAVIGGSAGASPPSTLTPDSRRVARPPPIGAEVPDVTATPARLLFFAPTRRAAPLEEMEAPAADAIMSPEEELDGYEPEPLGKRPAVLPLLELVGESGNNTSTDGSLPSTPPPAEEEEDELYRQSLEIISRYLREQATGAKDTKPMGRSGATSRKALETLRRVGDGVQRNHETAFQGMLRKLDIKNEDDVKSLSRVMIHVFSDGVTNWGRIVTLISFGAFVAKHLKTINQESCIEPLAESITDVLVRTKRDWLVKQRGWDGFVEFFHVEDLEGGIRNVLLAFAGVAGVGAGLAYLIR

[4] = molecular target: Bcl-2-like protein 1 (Homo sapiens, UniProt Q07817); assay: BCL-XL inhibitors, dose response, selectivity assay for MCL1 inhibitor project, biochemical, fluorescence polarization, 1536-well (AID 2218)
Chain of Bcl-2-like protein 1 (Q07817 whole entry): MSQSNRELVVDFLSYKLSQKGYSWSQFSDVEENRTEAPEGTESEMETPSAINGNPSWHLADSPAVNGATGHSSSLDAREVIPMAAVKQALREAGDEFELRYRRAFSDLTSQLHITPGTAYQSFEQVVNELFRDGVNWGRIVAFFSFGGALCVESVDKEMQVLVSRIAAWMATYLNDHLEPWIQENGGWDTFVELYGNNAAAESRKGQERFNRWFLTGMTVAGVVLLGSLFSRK

[5] = molecular target: DNA dC->dU-editing enzyme APOBEC-3A (Homo sapiens, UniProt P31941); assay: APOBEC3A DNA deaminase inhibitors, dose response, biochemical (AID 504722); type: functional
Chain of DNA dC->dU-editing enzyme APOBEC-3A (P31941 whole entry): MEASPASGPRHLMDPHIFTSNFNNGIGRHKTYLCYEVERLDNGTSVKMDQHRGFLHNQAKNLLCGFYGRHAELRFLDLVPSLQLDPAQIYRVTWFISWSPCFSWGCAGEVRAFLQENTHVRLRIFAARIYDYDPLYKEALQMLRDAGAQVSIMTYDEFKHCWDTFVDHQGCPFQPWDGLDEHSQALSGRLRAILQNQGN

[6] = molecular target: DNA dC->dU-editing enzyme APOBEC-3G (Homo sapiens, UniProt Q9HC16); assay: Dose Response confirmation of small molecule APOBEC3G DNA Deaminase Inhibitors via a fluorescence-based single-stranded DNA deaminase assay. [Related pubchem assays (depositor defined):AID493012, AID493028]; type: functional
Chain of DNA dC->dU-editing enzyme APOBEC-3G (Q9HC16 whole entry): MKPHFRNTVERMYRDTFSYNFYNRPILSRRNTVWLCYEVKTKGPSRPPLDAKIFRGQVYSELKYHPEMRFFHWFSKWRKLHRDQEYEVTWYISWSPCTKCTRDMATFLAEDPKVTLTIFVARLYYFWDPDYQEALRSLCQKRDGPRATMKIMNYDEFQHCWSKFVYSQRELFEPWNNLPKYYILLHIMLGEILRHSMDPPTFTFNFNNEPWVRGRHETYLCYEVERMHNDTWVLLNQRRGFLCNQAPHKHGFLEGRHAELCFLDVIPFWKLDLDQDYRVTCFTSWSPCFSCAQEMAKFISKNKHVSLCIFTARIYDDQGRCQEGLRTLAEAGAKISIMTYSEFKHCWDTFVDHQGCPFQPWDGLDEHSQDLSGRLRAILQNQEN

[7] = inhibitors of firefly luciferase expression or activity, dose response, H4 neuroglioma cells, luminescence (AID 1990); type: functional, cell-based
[8] = Luminescence Cell-Based Dose Response HTS to Identify Inhibitors of 5'UTR Stem-Loop Driven Prion Protein mRNA Translation in H4 Neuroglioblastoma Cells. [Related pubchem assays: 1827 (Project Summary), 1813 (Primary HTS)]; type: functional
[9] = inhibitors of SNCA 5'UTR-driven reporter translation, confirmation, H4 neuroglioma cells, luminescence (AID 1988); type: functional, cell-based
[10] = cytotoxicity in HPDE-C7 cells, cell-based, fluorescence, HTS (AID 430); type: functional; conditions: Homo sapiens
[11] = molecular target: Luciferin 4-monooxygenase (Photinus pyralis, UniProt P08659); assay: firefly luciferase enzyme inhibitors, dose response, biochemical, luminescence (AID 1891)
Chain of Luciferin 4-monooxygenase (P08659 whole entry): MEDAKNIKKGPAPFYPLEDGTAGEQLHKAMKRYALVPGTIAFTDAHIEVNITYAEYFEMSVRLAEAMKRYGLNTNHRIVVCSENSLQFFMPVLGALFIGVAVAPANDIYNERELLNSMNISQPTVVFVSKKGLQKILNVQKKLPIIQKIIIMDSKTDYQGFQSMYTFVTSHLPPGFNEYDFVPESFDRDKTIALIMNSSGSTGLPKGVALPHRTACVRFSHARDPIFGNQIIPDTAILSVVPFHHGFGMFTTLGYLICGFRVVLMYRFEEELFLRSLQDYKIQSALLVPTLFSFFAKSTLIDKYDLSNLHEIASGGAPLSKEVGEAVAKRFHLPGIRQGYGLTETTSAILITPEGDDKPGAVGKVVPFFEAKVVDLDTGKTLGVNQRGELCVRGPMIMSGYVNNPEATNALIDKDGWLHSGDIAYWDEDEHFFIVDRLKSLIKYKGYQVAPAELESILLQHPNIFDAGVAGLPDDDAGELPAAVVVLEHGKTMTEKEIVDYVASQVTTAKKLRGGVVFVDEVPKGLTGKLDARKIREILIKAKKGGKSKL

[12] = Luminescence Cell-Based Dose Confirmation HTS to Identify Inhibitors of Platelet Dense Granule Release. [Related pubchem assays: 1663 (Primary HTS), 1678 (Summary of Project)]; type: functional
[13] = inhibitors of intracellular T. cruzi replication, confirmation, NIH3T3 host cells, beta-gal luminescence (AID 2044); type: functional, cell-based;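 further: intracellular parasites grown in NIH/3T3 mouse fibroblasts as host cells; luminescent beta-galactosidase reporter signal from transgenic T. cruzi replicating inside host cells; inhibitors lower the luminescence signal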
[14] = microbe, parasite or virus in culture; type: functional; conditions: Mycobacterium tuberculosis
[15] = cytotoxicity in KRAS-transformed pancreatic duct cells, primary screen, cell-based, fluorescence, HTS (AID 431); type: functional; conditions: Homo sapiens;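 further: cell line used: HPDE-C7K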
[16] = cytotoxicity toward NIH3T3 fibroblasts, dose response, counter-screen, cell-based, ATP luminescence, mouse fibroblasts (AID 2010); type: functional;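 further: cells exposed to compound for about 90 hours before reading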
[17] = Luminescence Cell-Based Dose Retest to Confirm Inhibitors of Cancer Stem Cells. [Related pubchem assays (depositor defined):AID2717, AID2721]; type: functional; conditions: Homo sapiens
[18] = NIH-3T3 fibroblast cytotoxicity, dose response, cytotoxicity control, cell-based, fluorescence, Alamar Blue, secondary assay (AID 2327); type: functional;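 further: NIH-3T3 mouse fibroblasts cultured with fluconazole at 8 µg/mL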
[19] = molecular target: Aspartyl aminopeptidase (Plasmodium falciparum 3D7, UniProt Q8I2J3)
Chain of Aspartyl aminopeptidase (Q8I2J3 whole entry): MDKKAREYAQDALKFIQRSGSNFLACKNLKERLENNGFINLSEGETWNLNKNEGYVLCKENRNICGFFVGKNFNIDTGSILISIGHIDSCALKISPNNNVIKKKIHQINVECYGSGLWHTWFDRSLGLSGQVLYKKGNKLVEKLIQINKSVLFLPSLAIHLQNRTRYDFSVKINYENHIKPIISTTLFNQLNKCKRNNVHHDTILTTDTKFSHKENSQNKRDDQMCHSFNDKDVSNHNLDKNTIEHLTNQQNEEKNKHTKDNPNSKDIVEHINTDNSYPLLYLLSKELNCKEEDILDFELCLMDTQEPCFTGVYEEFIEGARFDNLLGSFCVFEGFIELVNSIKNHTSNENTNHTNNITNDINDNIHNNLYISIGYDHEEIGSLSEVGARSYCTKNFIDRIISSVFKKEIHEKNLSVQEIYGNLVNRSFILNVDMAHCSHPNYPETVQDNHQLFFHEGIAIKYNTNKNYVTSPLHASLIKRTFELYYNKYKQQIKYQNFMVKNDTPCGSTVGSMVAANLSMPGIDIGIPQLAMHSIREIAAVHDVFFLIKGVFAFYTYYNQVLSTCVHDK

[20] = molecular target: Procathepsin L (Homo sapiens, UniProt P07711)
Chain of Procathepsin L (P07711 whole entry): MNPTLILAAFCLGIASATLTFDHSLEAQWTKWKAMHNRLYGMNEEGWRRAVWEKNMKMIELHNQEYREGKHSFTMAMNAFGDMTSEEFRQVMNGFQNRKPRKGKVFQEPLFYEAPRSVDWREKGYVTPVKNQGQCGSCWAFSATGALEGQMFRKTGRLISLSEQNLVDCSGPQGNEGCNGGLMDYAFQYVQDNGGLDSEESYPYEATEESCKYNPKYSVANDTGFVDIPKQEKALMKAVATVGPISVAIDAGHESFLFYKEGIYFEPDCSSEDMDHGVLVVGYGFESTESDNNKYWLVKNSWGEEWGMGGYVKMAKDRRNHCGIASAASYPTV

[21] = C. albicans growth with fluconazole, confirmation, fluorescence, retest (AID 2467); type: functional, cell-based
[22] = molecular target: T1, RNA-binding protein pos-1 (Caenorhabditis elegans, UniProt G5EF15); assay: inhibitors of POS-1/mex-3 RNA binding, dose response, biochemical, fluorescence polarization (AID 1964);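 further: purified POS-1 fused to maltose binding protein made in E. coli; potency of compounds blocking POS-1 binding to fluorescent RNA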
T1 sequence (G5EF15 whole entry): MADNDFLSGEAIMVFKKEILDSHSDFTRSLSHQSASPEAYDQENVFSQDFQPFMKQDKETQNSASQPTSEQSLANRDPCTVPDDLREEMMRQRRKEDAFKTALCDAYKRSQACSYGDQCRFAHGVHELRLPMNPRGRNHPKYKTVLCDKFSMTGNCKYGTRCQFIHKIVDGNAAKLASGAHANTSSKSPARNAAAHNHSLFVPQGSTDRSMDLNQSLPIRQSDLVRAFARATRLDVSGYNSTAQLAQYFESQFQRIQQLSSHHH

[23] = molecular target: Large T antigen (Simian virus 40, UniProt P03070); type: functional, Betapolyomavirus macacae;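 further: Confirmatory-stage PubChem screen for compounds that inhibit SV40 T antigen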
Chain of Large T antigen (P03070 whole entry): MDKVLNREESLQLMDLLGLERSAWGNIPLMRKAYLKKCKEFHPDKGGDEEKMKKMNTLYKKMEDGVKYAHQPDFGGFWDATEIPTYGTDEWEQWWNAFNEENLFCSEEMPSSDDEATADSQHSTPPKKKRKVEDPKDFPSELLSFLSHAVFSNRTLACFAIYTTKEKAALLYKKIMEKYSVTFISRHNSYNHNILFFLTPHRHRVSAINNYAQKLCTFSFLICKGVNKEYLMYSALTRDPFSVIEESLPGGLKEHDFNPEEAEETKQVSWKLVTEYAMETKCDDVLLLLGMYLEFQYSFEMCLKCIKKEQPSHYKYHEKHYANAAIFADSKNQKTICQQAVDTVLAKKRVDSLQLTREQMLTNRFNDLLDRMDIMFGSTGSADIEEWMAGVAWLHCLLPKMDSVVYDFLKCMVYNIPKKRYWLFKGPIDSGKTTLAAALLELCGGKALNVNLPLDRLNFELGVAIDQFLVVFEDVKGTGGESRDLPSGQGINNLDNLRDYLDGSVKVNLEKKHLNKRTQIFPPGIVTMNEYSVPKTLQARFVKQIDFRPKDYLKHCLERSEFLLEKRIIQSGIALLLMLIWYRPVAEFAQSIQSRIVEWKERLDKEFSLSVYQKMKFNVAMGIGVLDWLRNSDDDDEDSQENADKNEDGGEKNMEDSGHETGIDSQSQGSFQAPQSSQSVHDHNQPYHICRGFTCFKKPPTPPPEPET

[24] = molecular target: T2, Mannose-6-phosphate isomerase (Homo sapiens, UniProt P34949); assay: inhibitors of human PMI, primary screen, biochemical, fluorescence intensity, coupled assay (AID 1209)
T2 sequence (P34949 whole entry): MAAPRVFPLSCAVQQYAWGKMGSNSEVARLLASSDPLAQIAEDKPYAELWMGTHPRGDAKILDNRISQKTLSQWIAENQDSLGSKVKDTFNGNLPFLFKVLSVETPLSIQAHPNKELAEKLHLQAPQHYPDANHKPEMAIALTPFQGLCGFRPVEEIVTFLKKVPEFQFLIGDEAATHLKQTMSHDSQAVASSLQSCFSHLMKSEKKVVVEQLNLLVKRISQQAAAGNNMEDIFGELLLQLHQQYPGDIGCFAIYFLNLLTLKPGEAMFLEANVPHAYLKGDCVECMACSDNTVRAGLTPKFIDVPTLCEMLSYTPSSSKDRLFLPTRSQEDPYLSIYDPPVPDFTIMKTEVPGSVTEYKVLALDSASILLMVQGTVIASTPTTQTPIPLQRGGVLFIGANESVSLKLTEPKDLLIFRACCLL
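Wherever AC50 is given: cells exposed to compound for roughly 70 hours or longer before luminescence read.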

With `COc1cc(/C=C(/C#N)C(=O)Nc2ccccc2)c(Br)cc1OCc1ccc(C(=O)O)cc1` as the molecule, how does the EC50 [1] read?
The EC50 was > 50 µM (active).

And the IC50 [2]?
Its IC50 is 66.6 µM (active).

For `C=CCn1c(S)nnc1CSc1ccccc1[N+](=O)[O-]`, which IC50 [3] is on record?
The IC50 was 29.6 µM (not active).

What about the IC50 [4] of the same molecule?
Its IC50 is > 109 µM (not active).

What about the IC50 [5] of the same molecule?
Its IC50 is 38.9 µM (active).

What about the IC50 [6] of the same molecule?
The IC50 was 2.24 µM (active).

Which EC50 [7] does the source give for `CCCc1cc(-c2nc(N)ncc2-c2ccc3c(c2)OCCCO3)c(O)cc1OC` here?
Its EC50 is 14.7 µM (active).

And the EC50 [8]?
The EC50 was > 120 µM (not active).

What about the EC50 [9] of the same molecule?
The EC50 was > 120 µM (not active).

What about the EC50 [10] of the same molecule?
The EC50 was 6.37 µM (active).

What about the EC50 [11] of the same molecule?
The EC50 was > 112 µM (not active).

And the EC50 [12]?
The EC50 was > 112 µM (not active).

And the EC50 [13]?
Its EC50 is 0.884 µM (active).

What about the CC50 [14] of the same molecule?
The CC50 was > 40 µM (active).

And the EC50 [15]?
The EC50 was 5.93 µM (active).

What about the EC50 [16] of the same molecule?
The EC50 was 21 µM (active).

And the AC50 [17]?
The AC50 was 3.81 µM (active).

For `Cc1ccc([N+](=O)[O-])cc1-c1[nH]c(-c2ccc(O)c(O)c2)nc1-c1ccccc1`, which EC50 [18] is on record?
The EC50 was 57.8 µM (active).

And the IC50 [19]?
The IC50 was 1.69 µM (active).

And the IC50 [20]?
The IC50 was > 59.6 µM (not active).

What about the EC50 [21] of the same molecule?
The EC50 was > 38 µM (not active).

For `Cc1ncc(CO)c(/C=N/NC(=O)c2cc(O)c(O)c(O)c2)c1O`, which EC50 [22] is on record?
Its EC50 is 71.2 µM (active).

And the IC50 [23]?
Its IC50 is 3.72 µM (active).

And the IC50 [24]?
Its IC50 is 4.5 µM (active).

What does the source list for `COCC(C)NC(=O)NC1(C(F)(F)F)Oc2ccc(Cl)cc2O1` (configuration not stated)?
IC50 [19]: 1.79 µM (active); IC50 [20]: > 59.6 µM (not active); AC50 [17]: 6.69 µM (active)
